Test results: PubChem BioAssay (NCI)
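Results reflect a 48-hour exposure of cells in 96-well plates to compound at five concentrations. GI50 is the concentration that inhibits growth by half. TGI: total growth inhibition.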

What was measured:
Assay in all cases: NCI anticancer screen, dose series, 48 h
786-0 renal = test system: 786-0 renal
A498 renal = test system: A498 renal
A549 NSCLC = test system: A549 NSCLC
ACHN renal = test system: ACHN renal
BT-549 breast = test system: BT-549 breast
CAKI-1 renal = test system: CAKI-1 renal
CCRF-CEM leukemia = test system: CCRF-CEM leukemia
COLO 205 colon = test system: COLO 205 colon
DU-145 prostate = test system: DU-145 prostate
EKVX NSCLC = test system: EKVX NSCLC
HCC-2998 colon = test system: HCC-2998 colon
HCT-116 colon = test system: HCT-116 colon
HCT-15 colon = test system: HCT-15 colon
HL-60(TB) leukemia = test system: HL-60(TB) leukemia
HOP-62 NSCLC = test system: HOP-62 NSCLC
HOP-92 NSCLC = test system: HOP-92 NSCLC
HS 578T breast = test system: HS 578T breast
HT29 colon = test system: HT29 colon
IGROV1 ovarian = test system: IGROV1 ovarian
K-562 leukemia = test system: K-562 leukemia
KM12 colon = test system: KM12 colon
LOX IMVI melanoma = test system: LOX IMVI melanoma
M14 melanoma = test system: M14 melanoma
MALME-3M melanoma = test system: MALME-3M melanoma
MCF7 breast = test system: MCF7 breast
MDA-MB-231 breast = test system: MDA-MB-231 breast
MDA-MB-435 = test system: MDA-MB-435
MOLT-4 leukemia = test system: MOLT-4 leukemia
NCI-H226 lung = test system: NCI-H226 lung
NCI-H23 lung = test system: NCI-H23 lung
NCI-H460 lung = test system: NCI-H460 lung
NCI-H522 lung = test system: NCI-H522 lung
NCI/ADR-RES ovarian = test system: NCI/ADR-RES ovarian
OVCAR-4 ovarian = test system: OVCAR-4 ovarian
OVCAR-5 ovarian = test system: OVCAR-5 ovarian
OVCAR-8 ovarian = test system: OVCAR-8 ovarian
PC-3 prostate = test system: PC-3 prostate
RPMI-8226 leukemia = test system: RPMI-8226 leukemia
RXF 393 renal = test system: RXF 393 renal
SF-268 CNS = test system: SF-268 CNS
SF-295 CNS = test system: SF-295 CNS
SF-539 CNS = test system: SF-539 CNS
SK-MEL-28 melanoma = test system: SK-MEL-28 melanoma
SK-MEL-5 melanoma = test system: SK-MEL-5 melanoma
SK-OV-3 ovarian = test system: SK-OV-3 ovarian
SN12C renal = test system: SN12C renal
SNB-19 CNS = test system: SNB-19 CNS
SNB-75 CNS = test system: SNB-75 CNS
SR leukemia = test system: SR leukemia
SW-620 colon = test system: SW-620 colon
T-47D breast = test system: T-47D breast
TK-10 renal = test system: TK-10 renal
U251 CNS = test system: U251 CNS
UACC-257 melanoma = test system: UACC-257 melanoma
UACC-62 melanoma = test system: UACC-62 melanoma
UO-31 renal = test system: UO-31 renal

C#C[C@]1(O)CC[C@H]2[C@@H]3CC=C4c5sc(NCc6ccccc6)nc5CC[C@]4(C)[C@H]3CC[C@@]21C
GI50 (786-0 renal): 1.73 µM | TGI (786-0 renal): 3.47 µM | GI50 (A498 renal): 1.72 µM | TGI (A498 renal): 4.24 µM | GI50 (A549 NSCLC): 3.48 µM | TGI (A549 NSCLC): 13.1 µM | GI50 (ACHN renal): 3.92 µM | TGI (ACHN renal): 15.9 µM | GI50 (BT-549 breast): 2.82 µM | TGI (BT-549 breast): 7.27 µM | GI50 (CAKI-1 renal): 2.59 µM | TGI (CAKI-1 renal): 8.04 µM | GI50 (CCRF-CEM leukemia): 2.94 µM | TGI (CCRF-CEM leukemia): 9.49 µM | GI50 (COLO 205 colon): 1.92 µM | TGI (COLO 205 colon): 3.62 µM | GI50 (DU-145 prostate): 7.54 µM | TGI (DU-145 prostate): 40.5 µM | GI50 (EKVX NSCLC): 4.16 µM | TGI (EKVX NSCLC): 16.3 µM | GI50 (HCC-2998 colon): 4.05 µM | TGI (HCC-2998 colon): 14.1 µM | GI50 (HCT-116 colon): 3.37 µM | TGI (HCT-116 colon): 11.5 µM | GI50 (HCT-15 colon): 1.7 µM | TGI (HCT-15 colon): 4.15 µM | GI50 (HL-60(TB) leukemia): 3.01 µM | TGI (HL-60(TB) leukemia): 9.19 µM | GI50 (HOP-62 NSCLC): 2.05 µM | TGI (HOP-62 NSCLC): 4.94 µM | GI50 (HOP-92 NSCLC): 1.56 µM | TGI (HOP-92 NSCLC): 7.34 µM | GI50 (HS 578T breast): 2.02 µM | TGI (HS 578T breast): 6.42 µM | GI50 (HT29 colon): 1.68 µM | TGI (HT29 colon): 3.54 µM | GI50 (IGROV1 ovarian): 5.83 µM | TGI (IGROV1 ovarian): 23.3 µM | GI50 (K-562 leukemia): 3.23 µM | TGI (K-562 leukemia): > 100 µM | GI50 (KM12 colon): 3.18 µM | TGI (KM12 colon): 10.8 µM | GI50 (LOX IMVI melanoma): 2.19 µM | TGI (LOX IMVI melanoma): 4.93 µM | GI50 (M14 melanoma): 2.94 µM | TGI (M14 melanoma): 10.1 µM | GI50 (MALME-3M melanoma): 2.14 µM | TGI (MALME-3M melanoma): 5.38 µM | GI50 (MCF7 breast): 3.31 µM | TGI (MCF7 breast): 10 µM | GI50 (MDA-MB-231 breast): 2.64 µM | TGI (MDA-MB-231 breast): 7.07 µM | GI50 (MDA-MB-435): 3.73 µM | TGI (MDA-MB-435): 18.7 µM | GI50 (MOLT-4 leukemia): 2.66 µM | TGI (MOLT-4 leukemia): 8.69 µM | GI50 (NCI-H226 lung): 11.3 µM | TGI (NCI-H226 lung): 37.1 µM | GI50 (NCI-H23 lung): 4.4 µM | TGI (NCI-H23 lung): 20.8 µM | GI50 (NCI-H460 lung): 4.66 µM | TGI (NCI-H460 lung): 16.6 µM | GI50 (NCI-H522 lung): 2.62 µM | TGI (NCI-H522 lung): 8.35 µM | GI50 (NCI/ADR-RES ovarian): 3.87 µM | TGI (NCI/ADR-RES ovarian): 43.9 µM | GI50 (OVCAR-4 ovarian): 8.48 µM | TGI (OVCAR-4 ovarian): 32.9 µM | GI50 (OVCAR-5 ovarian): 4.55 µM | TGI (OVCAR-5 ovarian): 17.6 µM | GI50 (OVCAR-8 ovarian): 3.78 µM | TGI (OVCAR-8 ovarian): 14.4 µM | GI50 (PC-3 prostate): 2.29 µM | TGI (PC-3 prostate): 6.77 µM | GI50 (RPMI-8226 leukemia): 1.65 µM | TGI (RPMI-8226 leukemia): 4.53 µM | GI50 (RXF 393 renal): 1.23 µM | TGI (RXF 393 renal): 3.17 µM | GI50 (SF-268 CNS): 3.85 µM | TGI (SF-268 CNS): 16.4 µM | GI50 (SF-295 CNS): 1.94 µM | TGI (SF-295 CNS): 4.08 µM | GI50 (SF-539 CNS): 1.4 µM | TGI (SF-539 CNS): 3.18 µM | GI50 (SK-MEL-28 melanoma): 2.31 µM | TGI (SK-MEL-28 melanoma): 7.2 µM | GI50 (SK-MEL-5 melanoma): 2.91 µM | TGI (SK-MEL-5 melanoma): 8.8 µM | GI50 (SK-OV-3 ovarian): 2.08 µM | TGI (SK-OV-3 ovarian): 4.41 µM | GI50 (SN12C renal): 3.52 µM | TGI (SN12C renal): 16.7 µM | GI50 (SNB-19 CNS): 4.01 µM | TGI (SNB-19 CNS): 18 µM | GI50 (SNB-75 CNS): 1.89 µM | GI50 (SR leukemia): 3.16 µM | TGI (SR leukemia): 29.6 µM | GI50 (SW-620 colon): 2.22 µM | TGI (SW-620 colon): 4.68 µM | GI50 (T-47D breast): 2.76 µM | TGI (T-47D breast): 16.6 µM | GI50 (TK-10 renal): 5.48 µM | TGI (TK-10 renal): 18.5 µM | GI50 (U251 CNS): 1.8 µM | TGI (U251 CNS): 5.8 µM | GI50 (UACC-257 melanoma): 1.82 µM | TGI (UACC-257 melanoma): 3.72 µM | GI50 (UACC-62 melanoma): 1.97 µM | TGI (UACC-62 melanoma): 4.49 µM | GI50 (UO-31 renal): 2.21 µM | TGI (UO-31 renal): 5.41 µM
